The values below come from patent US20260048118A1, “COMPOSITIONS AND METHODS FOR ENHANCING TRIPLEX AND NUCLEASE-BASED GENE EDITING” (Yale University, priority 2018, published 2026).

The subject of assay [1] is CD117+ cells from bone marrow and spleen of β-globin/GFP transgenic mice. As to the kind of experiment: In vivo gene editing in CD117+ cells of β-globin/GFP transgenic mice, GFP flow cytometry. On the set-up: species or system mouse. The following applies: 0.5 mg 3E10 i.p. 3 h before 2 mg PNA/DNA nanoparticles i.v.; harvested after eight days. As to the method: To evaluate the effects of 3E10 on PNA/DNA directed gene editing in vivo, the same β-globin/GFP transgenic mouse model described above was used. Three hours prior to treatment with nanoparticles, mice were injected with 0.5 mg of 3E10 intraperitoneally (i.p.). Either the full-length 3E10 or a single-chain variable fragment (scFv) were used. Two mg of nanoparticles containing PNA/Donor DNA were then injected intravenously. After eight days, bone marrow and spleens were harvested and CD117+ cells (C-KIT+, a marker of hematopoietic stem and progenitor cells) from these tissues were isolated using a Hematopoietic Progenitor Stem Cell Enrichment Set (BD Bioscience). Following enrichment, cells were analyzed via flow cytometry for GFP expression.

The test system of assay [2] is bone marrow cells from Townes mice (beta globin gene, SCD mutation). Nature of the assay: PNA/DNA editing of beta globin SCD mutation in bone marrow cells from Townes mice, ddPCR. The class given is cell-based, mouse. The following applies: 2 mg nanoparticles per well, 48 h, 3E10 line: full length 3E10 plus nanoparticles. As to the method: Bone marrow cells were isolated from the same transgenic mouse model of sickle cell disease described above in Example 3 (Townes model, Jackson Laboratory). Cells were treated with full length 3E10 plus 2 mg of nanoparticles per well. The nanoparticles contained the donor DNA plus tcPNA2A, designed to bind to and correct the beta globin gene at the site of the SCD mutation (A:T to T:A).
After 48 hours, the cells were washed prior to genomic DNA isolation (SV Wizard, Promega). Freshly isolated genomic DNA was analyzed by droplet digital PCR (ddPCR) to quantify gene editing frequencies.

Assay [3] concerns bone marrow cells of Townes mice (codon 6 mutation in the beta globin gene). Nature of the assay: In vivo PNA/DNA editing in Townes mice, bone marrow cells analysed by ddPCR. On the set-up: species or system mouse. Conditions: 4 doses of 2 mg nanoparticles over 2 weeks, analysed after two months; 3E10 line: 1 mg 3E10 i.p. 3 h prior to each dose. As to the method: To further validate whether 3E10 can boost gene editing in vivo, the Townes model (the same sickle cell transgenic mouse model used in Examples 3 and 4) was used. Mice were injected with a total of 4 doses of 2 mg of nanoparticles containing PNA/donor DNA over the course of 2 weeks, with the goal of correcting the codon 6 mutation in the beta globin gene. Three hours prior to each nanoparticle administration, mice were injected with 1 mg of 3E10 intraperitoneally (i.p). After two months, bone marrow cells were harvested and analyzed for editing via digital droplet PCR (ddPCR). Injections were performed […] every 3 days over the course of 2 weeks as described above.

For assay [4], the system named is SC-1 cells, a human lymphoblastoid cell line that carries the SCD mutation. As to the kind of experiment: Beta globin editing in SC-1 cells, ddPCR. Conditions: 2 mg nanoparticles per well, 48 h, 3E10 line: 3E10 prior to nanoparticles. The format is cell-based. As to the method: SC-1 cells, a human lymphoblastoid cell line that carries the SCD mutation, were treated with 2 mg of nanoparticles per well with or without 3E10. After 48 hours, the cells were washed prior to genomic DNA isolation (SV Wizard, Promega). Freshly isolated genomic DNA was analyzed by droplet digital PCR (ddPCR) for editing frequencies.

Assay [5] has as its system K562 cells carrying a BFP/GFP reporter gene. Nature of the assay: CRISPR/Cas9 D10A nickase gene editing in K562 BFP/GFP reporter cells, flow cytometry. The class given is cell-based, human. Conditions: full-length 3E10 1.5 mg/mL=10 μM, RNP plus donor DNA nucleofected, two days. As to the method:
K562 cells carrying a BFP/GFP reporter gene (Richardson, et al., Nat. Biotechnol., 34 (3): 339-44 (2016)) were transfected with CRISPR/Cas9 WT or CRISPR/Cas9 D10A nickase variant enzymes plus a guide RNA targeting the mutation site in GFP. Some samples were also treated with full-length 3E10, at a concentration of 1.5 mg/mL=10 μM.
Cas9 protein and guide RNAs were introduced by nucleofection as a ribonucleoprotein (RNP) complex. 45 pmol of Cas9 protein (D10A nickase variant or WT, both obtained from PNA Bio) with 45 pmol of sgRNA (synthesized with Invitrogen GeneArt kit) in Cas9 nuclease buffer (NEB), were pre-incubated for 5 minutes at room temperature.
Cells were nucleofected with the RNP complex and donor DNA having the sequence:
The frequency of gene editing was measured two days later by flow cytometry for green fluorescence.
Background: In flow cytometry, cells or beads pass a laser one at a time.

As to “3E10: cell-penetrating monoclonal anti-DNA antibody that binds to and inhibits RAD51; produced by ATCC No. PTA 2439 hybridoma”, in assay [1], the “gene editing in bone marrow CD117+ cells vs nanoparticles alone” value is “higher levels of gene editing” and the “gene editing in spleen CD117+ cells vs nanoparticles alone” value was “higher levels of gene editing”. Besides, in assay [2], the “gene editing frequency (ddPCR)” value is “more than 8%”. The “average editing frequency in bone marrow cells (ddPCR)” value in assay [3] is on record as 2.1%. The “gene editing frequency (ddPCR)” value in assay [4] came out at 17%. For the same substance, in assay [5], the “effect on gene editing by nickase Cas9 D10A (green fluorescence)” value is given as “substantially boosted gene editing”.
